The text below walks through data of patent publication US20160067311A1, “USE OF ELSIGLUTIDE TO TREAT GASTROINTESTINAL MUCOSITIS INCLUDING CHEMOTHERAPY-INDUCED DIARRHEA” (Helsinn Healthcare SA, priority 2014, published 2016).

One data set has as its system cancer patients. The settings on record: patients treated with the drug; cited from earlier work.
The conditions of data set [1]: human, in vivo.
Experimental: (§1) Data on human exposure to elsiglutide generated so far originate from three clinical trials, one performed in healthy subjects (study 06-013) and two in cancer patients (TIDE-09-04, TIDE-11-10). The main objective of the first two studies was the evaluation of the safety, tolerability and maximum tolerated dose (MTD) of ascending elsiglutide doses administered as s.c. (both studies) and i.v. (only study 06-013) bolus injections. In study 06-013 elsiglutide was administered as single i.v. or s.c. bolus, while in study TIDE-09-04 each dose was administered as s.c. bolus on 4 consecutive days. Study TIDE-11-10 was a phase II proof of concept study that mainly evaluated the efficacy of elsiglutide administered as 24 mg daily s.c. bolus injections for 4 consecutive days in preventing CID in patients with colorectal cancer receiving 5-FU based chemotherapy (FOLFOX4 or FOLFIRI regimen). The secondary objectives of all three studies included the evaluation of the pharmacokinetics of elsiglutide and its major metabolites in humans.
Data set [2] is described as follows: Clinical pharmacokinetics of elsiglutide and its metabolites (studies 06-013, TIDE-09-04, TIDE-11-10).
Experimental: as §1

Each structure is given as a SMILES string. Peptide text beside a SMILES is read from it.

On to `CS(=O)(=O)CCNCc1ccc(-c2ccc3ncnc(Nc4ccc(OCc5cccc(F)c5)c(Cl)c4)c3c2)o1` [lapatinib], for which the “patients in whom diarrhea occurs” value in the data set with cancer patients is reported as “up to 60%”.
With `CC[C@H](C)[C@H](NC(=O)[C@H](CC(C)C)NC(=O)[C@H](Cc1c[nH]c2ccccc12)NC(=O)[C@H](C)NC(=O)[C@@H](NC(=O)[C@H](Cc1ccccc1)NC(=O)[C@H](CC(=O)O)NC(=O)[C@H](CCCNC(=N)N)NC(=O)[C@H](C)NC(=O)[C@H](C)NC(=O)[C@H](CC(C)C)NC(=O)[C@H](C)NC(=O)[C@H](CC(=O)O)NC(=O)[C@H](CC(C)C)NC(=O)[C@@H](NC(=O)[C@@H](NC(=O)[C@H](CO)NC(=O)[C@H](CC(C)C)NC(=O)[C@H](CCC(=O)O)NC(=O)[C@H](CO)NC(=O)[C@H](CO)NC(=O)[C@H](Cc1ccccc1)NC(=O)[C@H](CO)NC(=O)CNC(=O)[C@H](CCC(=O)O)NC(=O)CNC(=O)[C@@H](N)Cc1c[nH]cn1)[C@@H](C)O)[C@@H](C)CC)[C@@H](C)CC)C(=O)N[C@@H](C)C(=O)N[C@H](C(=O)N[C@@H](CCCCN)C(=O)N[C@H](C(=O)N[C@H](C(=O)N[C@@H](CC(=O)O)C(=O)N[C@@H](CCCCN)C(=O)O)[C@@H](C)O)[C@@H](C)CC)[C@@H](C)O` [ZP2242] (H-HGEGSFSSELSTILDALAARDFIAWLIATKITDK-OH; N-terminus assumed), the “exposure to metabolite relative to exposure to the parent ZP1846 (elsiglutide)” value in data set [1] is on record as over 25 fold. Moreover, in data set [2] (human, plasma), the “AUC of ZP2242 relative to that of ZP2712” value is given as “at least 10 times” and the half-life (commonly the time needed for the level to fall by half in the phase considered) was 6 to 9 h. Besides, in data set [2] (study TIDE-09-04, s.c. on 4 consecutive days), the “dose dependence of pharmacokinetics (Cmax and AUC increases proportional to dose)” value is “dose independent”.
